Laboratory results reported in ChEMBL document CHEMBL4428103, “Potential therapeutic application of small molecule with sulfonamide for chondrogenic differentiation and articular cartilage repair” (Bioorg Med Chem Lett, 2016).
Activity calls are given as the source filed them. The rule behind the calls is not given here.

Legend:
Homo sapiens [1] = organism: Homo sapiens; assay: Chondrogenic activity in human ASC assessed as increase in aggrecan expression at 1 uM incubated for 11 days by sandwich ELISA relative to control; assay type: functional
Homo sapiens [2] = organism: Homo sapiens; assay: Chondrogenic activity in human ASC assessed as increase in aggrecan expression at 10 uM incubated for 11 days by sandwich ELISA relative to control; assay type: functional
Rattus norvegicus [3] = organism: Rattus norvegicus; assay: Induction of cartilage repair in collagenase2-induced osteoarthritis rat model assessed as recovery of cartilage thickness at 10 uM on day 7 and 21 by safranin O/fast green staining-based optical microscopic analysis; assay type: functional, organism-based
Homo sapiens [4] = organism: Homo sapiens; assay: Induction of differentiation in human ASC after 11 days by alcian blue staining based analysis relative to control; assay type: functional
Homo sapiens [5] = organism: Homo sapiens; assay: Chondrogenic activity in human ASC assessed as increase in aggrecan expression incubated for 11 days by sandwich ELISA relative to control; assay type: functional
Homo sapiens [6] = organism: Homo sapiens; assay: Upregulation of ERK phosphorylation in human ASC at 0.1 to 1 uM by Western blot analysis; settings: TDE = time-dependent effect
Homo sapiens [7] = organism: Homo sapiens; assay: Chondrogenic activity in human ASC assessed as increase in aggrecan expression at 10 uM incubated for 11 days in presence of MEK inhibitor U0126 by sandwich ELISA relative to control; assay type: functional
Rattus norvegicus [8] = organism: Rattus norvegicus; assay: Induction of cartilage repair in collagenase2-induced osteoarthritis rat model assessed as recovery of cartilage thickness injected with 10 uM compound-treated human ASC on day 7 and 21 by safranin O/fast green staining-based optical microscopic analysis; assay type: functional, organism-based
Rattus norvegicus [9] = organism: Rattus norvegicus; assay: Induction of cartilage repair in collagenase2-induced osteoarthritis rat model assessed as increase in proteoglycan content injected with 10 uM compound-treated human ASC + on day 7 and 21 by safranin O/fast green staining-based optical microscopic analysis; assay type: functional, organism-based
Rattus norvegicus [10] = organism: Rattus norvegicus; assay: Upregulation of aggrecan expression in collagenase2-induced osteoarthritis rat model injected with 10 uM compound-treated human ASC on day 7 and 21 by immunohistochemistry; assay type: functional, organism-based
Rattus norvegicus [11] = organism: Rattus norvegicus; assay: Upregulation of aggrecan expression in collagenase2-induced osteoarthritis rat model injected with 10 uM compound on day 7 and 21 by immunohistochemistry; assay type: functional, organism-based

| Structure (SMILES) | Activity (Homo sapiens [1]) | Activity (Homo sapiens [2]) | further results |
| --- | --- | --- | --- |
| CC(C)(C)c1ccc(S(=O)(=O)Nc2cccc(O)c2)cc1 | inactive | – | – |
| O=S(=O)(NCCc1ccc(O)c(O)c1)c1ccc(-c2ccccc2)cc1 | inactive | inactive | – |
| O=S(=O)(NCCc1ccc(O)c(O)c1)c1ccc2ccccc2c1 | inactive | inactive | – |
| O=S(=O)(NC1CCC(CCO)CC1)c1ccc2ccccc2c1 (configuration not stated) | inactive | inactive | – |
| O=S(=O)(Nc1ccc(O)cc1Cl)c1ccc(-c2ccccc2)cc1 | inactive | – | – |
| O=S(=O)(Nc1ccc(O)c(F)c1)c1ccc(-c2ccccc2)cc1 | inactive | – | – |
| O=S(=O)(Nc1cccc2ccc(O)cc12)c1cccc2cccnc12 | – | – | fold change (FC) (Homo sapiens [1]): 2; fold change (FC) (Homo sapiens [2]): 2 |
| Cc1ccc(S(=O)(=O)Nc2cccc3c(O)cccc23)cc1 | inactive | Active | – |
| O=[N+]([O-])c1cc(NS(=O)(=O)c2ccc3ccccc3c2)ccc1O | inactive | Active | – |
| O=S(=O)(Nc1cccc2c(O)cccc12)c1ccc(-c2ccccc2)cc1 | – | – | fold change (FC) (Homo sapiens [1]): 2; fold change (FC) (Homo sapiens [2]): 2 |
| CC(C)(C)c1ccc(S(=O)(=O)Nc2ccc(O)c(C(=O)O)c2)cc1 | – | – | fold change (FC) (Homo sapiens [1]): 2; fold change (FC) (Homo sapiens [2]): 2 |
| O=S(=O)(Nc1ccc(O)cc1)c1cccc2cccnc12 | – | – | fold change (FC) (Homo sapiens [1]): 2; fold change (FC) (Homo sapiens [2]): 2; Activity (Rattus norvegicus [3]): Active; fold change (FC) (Homo sapiens [4]): 3; Activity (Homo sapiens [5]): Dose-dependent effect; Activity (Homo sapiens [6]): Tde; Activity (Homo sapiens [7]): inactive; Activity (Rattus norvegicus [8]): Active; Activity (Rattus norvegicus [9]): Active; Activity (Rattus norvegicus [10]): Active; Activity (Rattus norvegicus [11]): Active |
| O=C(O)c1cc(NS(=O)(=O)c2cccc3cccnc23)ccc1O | – | – | fold change (FC) (Homo sapiens [1]): 2; fold change (FC) (Homo sapiens [2]): 2 |
| CCN(c1cc(O)ccc1C)S(=O)(=O)c1ccc(C(C)(C)C)cc1 | inactive | inactive | – |
| CC(C)(C)c1ccc(S(=O)(=O)NC2CCC(CCO)CC2)cc1 (configuration not stated) | inactive | inactive | – |
| O=S(=O)(Nc1ccc(O)cc1)c1ccc2ccccc2c1 | inactive | inactive | – |
| O=S(=O)(NC1CCC(CCO)CC1)c1ccc(-c2ccccc2)cc1 (configuration not stated) | inactive | inactive | – |
| O=S(=O)(Nc1ccc(O)cc1Cl)c1ccc2ccccc2c1 | inactive | Active | – |
| CC(C)(C)c1ccc(S(=O)(=O)Nc2ccc(O)c(F)c2)cc1 | inactive | – | – |
| CC(C)(C)c1ccc(S(=O)(=O)Nc2ccc(O)cc2F)cc1 | inactive | – | – |
| O=S(=O)(Nc1ccc(O)cc1F)c1ccc(-c2ccccc2)cc1 | inactive | – | – |
| O=S(=O)(Nc1ccc(O)c(F)c1)c1ccc2ccccc2c1 | inactive | – | – |
| CC(C)(C)c1ccc(S(=O)(=O)NCCc2ccc(O)c(O)c2)cc1 | inactive | inactive | – |
| Cc1ccc(S(=O)(=O)Nc2ccc(O)c3ccccc23)cc1 | – | – | fold change (FC) (Homo sapiens [1]): 2; fold change (FC) (Homo sapiens [2]): 2 |
| O=S(=O)(Nc1ccc(O)cc1F)c1ccc2ccccc2c1 | inactive | Active | – |
| CC(C)(C)c1ccc(S(=O)(=O)Nc2ccc(O)cc2Cl)cc1 | inactive | – | – |
| Cc1ccc(S(=O)(=O)Nc2cccc3ccc(O)cc23)cc1 | inactive | Active | – |
| CCN(c1cc(O)ccc1C)S(=O)(=O)c1ccc2ccccc2c1 | inactive | inactive | – |
